In one assay the test system is P301S mouse models. The experiment in a line: Tau phosphorylation, memory and brain atrophy in tauopathy model. It is filed as in vivo. Conditions: P301S (FTDP-17) mouse model.
Assay [1] relates to 74-week old mice (C57B16/J). In words: Grip strength test (smart grip strength meter). It is filed as in vivo, mouse. Conditions: 7 mg/kg and 20 mg/kg intraperitoneal twice a week for 6 weeks. As for the experimental part: 74-week old mice (C57B16/J) were purchased from Oriental Yeast. Various concentrations (0 mg/kg (control), 7 mg/kg, and 20 mg/kg) of C-82 were administered twice a week through a 6-week intraperitoneal administration until reaching 80-week old. Muscle strength (endurance) and grip strength of mice administered with C-82 were then measured through a treadmill test and smart grip strength meter for rats and mice (Muromachi Kikai Co., Ltd.), respectively. The treadmill test was conducted under the same condition as Example 1.

For another assay, the system named is mouse bones. In words: Bone density (DEXA or ultrasound). It is filed as in vivo. Conditions: administered versus non-administered mice. As for the experimental part:
This Example tested bone density for mice administered with OK-1 and mice without administration of OK-1 in order to investigate the effect of OK-1 on mouse bones. Bone density was measured using DEXA or ultrasound.
This Example tested bone density for mice administered with C-82 and mice without administration of C-82 in order to investigate the effect of C-82 on mouse bones. Bone density was measured using DEXA or ultrasound.

Assay [2] deals with muscle of mice without exercise. The experiment in a line: Gene analysis (RNA-seq, GO, upstream transcription factor, GSEA) of muscle of administered mice without exercise. The assay is classed as in vivo, mouse. As for the experimental part: Gene analysis (RNA-seq) was performed in old mice administered with OK-1 with improved muscle strength and muscle mass. The method and reagent used were the following.
The quality of all reads was checked by using FastQC v0.11.8, and low quality reads were removed using Trimomatic (ver 0.38).
LEADING: 20 (remove bases with a quality score of less than 20 from the leading reads), TRAILING: 20, SLIDINGWINDOW: 4:15 (window size 4, average quality 15), MINLEN: 36 (remove reads that are less than […])
Each read obtained after filtering was mapped to reference genome GRCm38 by using STAR (ver 2.7.0.f). Mapping was performed using the default values of STAR.
1) Index preparation • Run Mode; genomeGenerate • Reference; GRCm38 • Annotation file; genecode version M24 • sjdbOverhang; 150 alignment was performed using the index prepared above. In addition, this was performed with default values without options.
To count the number of genes, featuecount (ver 1.6.4) was used to count the number for each gene name defined by a symbol name, where the number was counted in gene symbol units defined in genecode version M24.
The counted numbers were filtered for genes with a count data of 0 in all samples, subjected to TMM normalization using edgeR (ver 3.22.3), and corrected among samples. Initially, for understanding of the overall picture of the data, primary component analysis and clustering analysis were performed using count data after removal of low expression genes.
Differential expression of a pattern designated based on the obtained expression values was compared.
Differentially expressed genes were tested using edgeR. As the definition of differentially expressed gene, uncorrected p. value<0.05 was used as a cut-off value, and Fold Change of “pattern not used” and “2 or more or 0.5 or less” were used as the cut-off for calculation.
Gene enrichment analysis was performed on the resulting differentially expressed gene using gprofiler2 (version 0.1.6).
Expression values after normalization of resulting differentially expressed genes were extracted. Visual heatmap was drawn to study the change. […] This analysis was performed using RcisTarget (ver 1.8.0). RcisTarget performed analysis using a mouse database for 10 kbp upstream of TSS stored in RcisTarget. Details of analysis are the following (cited from https://scenic.aertslab.org/tutorials/RcisTarget.html).
The first step to estimate the over-representation of each motif on the gene-set is to calculate the Area Under the Curve (AUC) for each pair of motif-geneSet. This is calculated based on the recovery curve of the gene-set on the motif ranking (genes ranked decreasingly by the score of motif in its proximity, as provided in the motifRanking database).
The selection of significant motifs is done based on the Normalized Enrichment Score (NES). The NES is calculated—for each motif—based on the AUC distribution of all the motifs for the gene-set [(x-mean)/sd]. Those motifs that pass the given threshold (3.0 by default) are considered significant. […] In this way, the third step of the workflow is to identify which genes (of the gene-set) are highly ranked for each of the significant motifs. These genes were identified by a faster implementation based on an approximate distribution using the average at each rank.
The category of genes with a change in expression identified in Example 2 was analyzed with a software (GSEA), which is different from that in Example 2 (GO) (FIG. 3). Analysis with GSEA was performed as follows. GSEA performed categorization by the regulating gene. This is different from GO, which performs categorization by function.
Data was created on the relationship of activattion+unknown and repression+unknown for regulatory genes and transcription factors installed in TRRUST ver2. Gene enrichment analysis was performed using GSEA (https://www.gsea-msigdb.org/gsea/index.jsp) based on respective gene sets. local gsea-3.0 that starts up within java was used for GSEA.

Assay [3] concerns ALS mouse models (e.g., SOD1G93A mice). The experiment in a line: ALS mouse model. The assay is classed as in vivo. The following applies: administered versus non-administered group. As for the experimental part: ALS mouse models (e.g., SOD1G93A mice) were divided into two groups. OK was administered to one of the groups, and OK was not administered to the other group.
Assay [4] concerns Mice induced to be obese by feeding high fat feed. The experiment in a line: High fat feed obese mice (metabolism). It is filed as in vivo, mouse. The following applies: administered versus non-administered group. As for the experimental part:
Mice induced to be obese by feeding high fat feed were divided into two groups. OK was administered to one of the groups, and OK was not administered to the other group.

SMILES strings stand for the structures. Values joined by “and” are separate entries in the source; they are usually repeats but may differ in a detail not shown here. Identical values can stand only once. “Also recorded” adds a separate entry of the source.

Turning to `C[C@H]1[C@H]2N(C(=O)CN(C)N2C(=O)NCc2ccccc2)[C@@H](Cc2ccc(O)cc2)C(=O)N1Cc1cccc2cccnc12` [C-82, (6S,9S)—N-benzyl-6-(4-hydroxybenzyl)-2,9-dimethyl-4,7-dioxo-8-(quinolin-8-ylmethyl)hexahydro-2H-pyrazino[2,1-c][1,2,4]triazine-1(6H)-carboxamide], the “phosphorylation of Tau, memory or brain atrophy” value in the assay with P301S mouse models is “suppression in phosphorylation of Tau and improvement in memory or brain atrophy are observed”. Moreover, the grip strength result in assay [1] is listed as “a significant difference was not observed in grip strength, a tendency for a concentration dependent increase was observed; also recorded: a significant difference was not observed in grip strength, a tendency of a concentration dependent increase was observed”. Also, the bone density result in the assay on mouse bones is “bone density is improved”. Also, the “change in gene expression in muscles” value in assay [2] (C-82 administration, same method as Example 2) was “achieves the same result as OK-1”.

Regarding `C[C@H]1[C@H]2N(C(=O)CN(C)N2C(=O)NCc2ccccc2)[C@@H](Cc2ccc(OP(=O)(O)O)cc2)C(=O)N1Cc1cccc2cccnc12` [OK-1], the “phosphorylation of Tau, memory or brain atrophy” value with P301S mouse models is “suppression in phosphorylation of Tau and improvement in memory or brain atrophy are observed”. In addition, the ALS entry in assay [3] was “ALS is improved”. For the same molecule, in the assay with mouse bones, the bone density result is recorded as “bone density is improved”. Besides, in assay [4], the metabolism result is “metabolism is improved”. Moreover, in assay [2], the “gene group associated with OK-1: genes associated with regulation of muscle without exercise” value is “Ppara, Pou2f2, Foxo1, Pparg, Pou2f1, Trp63, Sp1, Tcf3, Zeb1, Srebf1, Sp3, Ebf1, Mycn, and Pbx1”; the “upstream factors from upstream transcription factor analysis” value is “Hnf4a and Gata4, Nrf1, and Hnf1a”. In addition, the “gene group associated with OK-1 by GSEA: involved in increase in muscle” value in assay [2] (GSEA, TRRUST ver2) is “IRF1, NFE2L2, PPARG, FOXO1, CEBPB, PPARA, CEBPA, STAT1, STAT5A, MYOD1, REL, NFKB1, SPI1, IRF8, SP1, and FOXM1”. In assay [2] (OK-1 administration, p<0.05), the “genes decreased (downregulated expression) significantly in muscle” value was 445 genes and 595 genes; the “genes increased (upregulated expression) significantly in muscle” value is 206 genes and 181 genes.

(Values after patent US20230390296A1, “NOVEL TREATMENT AND PREVENTION OF SARCOPENIA-RELATED DISEASES” (KEIO UNIVERSITY, priority 2020, published 2023).)
